Laboratory results taken from patent US12371454B2, “Cyclic peptide compound having Kras inhibitory action” (priority 2019, dated 2025).
Starred links: 1 amine or outer side, 2 acyl side, 3 side chain; linkers in the order of their positions; H or OH if unused. Positions of bridges follow the written chain, without caps; N, C: chain ends. Non-standard residues stand in square brackets, D forms with d. Residues, ends and D or L forms follow the SMILES beside them. *: point of attachment. hPhe(3-Cl-4-CF3) = N[C@@H](CCc1ccc(C(F)(F)F)c(Cl)c1)C(=O)O; NMePhe(4-CF3) = CN[C@@H](Cc1ccc(C(F)(F)F)cc1)C(=O)O; X23 = CN([C@@H](Cc1ccccc1OC(F)(F)F)C(=O)[*:2])[*:1]; NMePhe(3-Cl) = CN[C@@H](Cc1cccc(Cl)c1)C(=O)O; NMePhe(4-Br) = CN[C@@H](Cc1ccc(Br)cc1)C(=O)O; NMePhe(3-Me) = CN[C@@H](Cc1cccc(C)c1)C(=O)O; NMePhe(4-Me) = CN[C@@H](Cc1ccc(C)cc1)C(=O)O; NMePhe(2-Cl) = CN[C@@H](Cc1ccccc1Cl)C(=O)O; NMePhe(4-F) = CN[C@@H](Cc1ccc(F)cc1)C(=O)O; NMedβ3hAla = C[C@H](CC(=O)[*:2])N(C)[*:1]; NMehPhe = CN[C@@H](CCc1ccccc1)C(=O)O; NMeY = CN[C@@H](Cc1ccc(O)cc1)C(=O)O; NMeCha = CN[C@@H](CC1CCCCC1)C(=O)O; NMeD = CN[C@@H](CC(=O)O)C(=O)O; NMeL = CN[C@@H](CC(C)C)C(=O)O; NMeV = CN[C@H](C(=O)O)C(C)C; d(β3hA) = C[C@@H](N)CC(=O)O; NMeAbu = CC[C@H](NC)C(=O)O; NMeA = CN[C@@H](C)C(=O)O; Piperidide = C1CCN(*)CC1; Ac5c = NC1(C(=O)O)CCCC1; Aze = O=C(O)[C@@H]1CCN1; CF3 = FC(F)(F)*; Sar = CNCC(=O)O

Key:
[1] = target: T1, Kras and SOS1 (biotin-tagged human Kras loaded with GDP, His-tagged human SOS1) (Homo sapiens, UniProt P01116, G12D); assay: Protein-protein interaction inhibition between Kras and SOS1 (KrasGl2D-SOS PPI) using AlphaScreen; type: binding; details: AlphaScreen; biotin-tagged human Kras loaded with GDP, His-tagged human SOS1; read-out: KRAS G12D-SOS PPI IC50
T1 construct: made in house; host or cells: E. coli (stated for Kras only)
How it was run: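 Read-out is acceptor-bead light at 520-620 nm, arising when 680 nm-irradiated nickel donor beads pass singlet oxygen to streptavidin acceptors. The bead pair links His-tagged SOS1 with biotin-tagged, GDP-bound Kras from E. coli.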

[2] = test system: Human pancreatic cancer cell line AsPC-1; assay: Measurement of AsPC-1 cell growth inhibition (AsPC-1 CGI); type: cell-based; details: 96 h
How it was run: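 AsPC-1 cells in 15% FBS RPMI-1640 were exposed to test compound for 96 hours at 37° C, with CellTiter-Glo as endpoint.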

T1 sequence (P01116 1-188 isoform P01116-2 G12D): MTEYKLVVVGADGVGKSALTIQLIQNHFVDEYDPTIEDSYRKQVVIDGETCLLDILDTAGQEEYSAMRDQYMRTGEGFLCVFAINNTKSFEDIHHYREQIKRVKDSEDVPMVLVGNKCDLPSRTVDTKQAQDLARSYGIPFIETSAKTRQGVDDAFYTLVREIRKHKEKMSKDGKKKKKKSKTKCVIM

Structure (SMILES) | IC50 [1] | IC50 [2]
CC[C@H](C)[C@@H]1NC(=O)[C@H](CC(C)C)N(C)C(=O)C[C@@H](C)NC(=O)[C@H](C(C)C)N(C)C(=O)C2(CCCC2)NC(=O)[C@@H]2CCCN2C(=O)[C@H](CCc2ccc(C(F)(F)F)c(Cl)c2)NC(=O)CN(C)C(=O)[C@H](Cc2ccc(OC)cc2)N(C)C(=O)CN(C)C(=O)CN(C)C1=O [Compound 1605] (cyclo([Ac5c][NMeV][d(β3hA)][NMeL]I[Sar][Sar][NMeY](Me)[Sar][hPhe(3-Cl-4-CF3)]P)) | 12 nM | 100 to 500 nM
CC[C@H](C)[C@@H]1NC(=O)[C@H](CC)N(C)C(=O)C[C@@H](C)NC(=O)[C@H](C(C)C)N(C)C(=O)C2(CCCC2)NC(=O)[C@@H]2CCCN2C(=O)[C@H](CCc2ccc(C(F)(F)F)c(Cl)c2)NC(=O)CN(C)C(=O)[C@H](CC2CCCCC2)N(C)C(=O)[C@@H]2CCN2C(=O)[C@H](C)N(C)C1=O [Compound 1607] (cyclo([Ac5c][NMeV][d(β3hA)][NMeAbu]I[NMeA][Aze][NMeCha][Sar][hPhe(3-Cl-4-CF3)]P)) | 28 nM | 100 to 500 nM
CC[C@H](C)[C@@H]1NC(=O)[C@H](CC(C)C)N(C)C(=O)C[C@@H](C(=O)N2CCCCC2)N(C)C(=O)[C@H](C(C)C)N(C)C(=O)C2(CCCC2)NC(=O)[C@@H]2CCCN2C(=O)[C@H](CCc2ccc(C(F)(F)F)c(Cl)c2)NC(=O)CN(C)C(=O)[C@H](CCc2ccccc2)N(C)C(=O)CN(C)C(=O)CN(C)C1=O [Compound 1608] ([NMeL]I[Sar][Sar][NMehPhe][Sar][hPhe(3-Cl-4-CF3)]P[Ac5c][NMeV][NMeD]-Piperidide; lactam N-11) | 5.8 nM | 100 to 500 nM
CC[C@H](C)[C@@H]1NC(=O)[C@H](CC(C)C)N(C)C(=O)C[C@@H](C(=O)N2CCCCC2)N(C)C(=O)[C@H](C(C)C)N(C)C(=O)C2(CCCC2)NC(=O)[C@@H]2CCCN2C(=O)[C@H](CCc2ccc(C(F)(F)F)c(Cl)c2)NC(=O)CN(C)C(=O)[C@H](Cc2cccc(Cl)c2)N(C)C(=O)CN(C)C(=O)CN(C)C1=O [Compound 1611] ([NMeL]I[Sar][Sar][NMePhe(3-Cl)][Sar][hPhe(3-Cl-4-CF3)]P[Ac5c][NMeV][NMeD]-Piperidide; lactam N-11) | 3.2 nM | 100 to 500 nM
CC[C@H](C)[C@@H]1NC(=O)[C@H](CC(C)C)N(C)C(=O)C[C@@H](C)N(C)C(=O)[C@H](C(C)C)N(C)C(=O)C2(CCCC2)NC(=O)[C@@H]2CCCN2C(=O)[C@H](CCc2ccc(C(F)(F)F)c(Cl)c2)NC(=O)CN(C)C(=O)[C@H](Cc2ccccc2Cl)N(C)C(=O)CN(C)C(=O)CN(C)C1=O [Compound 1615] (cyclo([Ac5c][NMeV][NMedβ3hAla][NMeL]I[Sar][Sar][NMePhe(2-Cl)][Sar][hPhe(3-Cl-4-CF3)]P)) | 40 nM | 100 to 500 nM
CC[C@H](C)[C@@H]1NC(=O)[C@H](CC(C)C)N(C)C(=O)C[C@@H](C)N(C)C(=O)[C@H](C(C)C)N(C)C(=O)C2(CCCC2)NC(=O)[C@@H]2CCCN2C(=O)[C@H](CCc2ccc(C(F)(F)F)c(Cl)c2)NC(=O)CN(C)C(=O)[C@H](Cc2ccc(C(F)(F)F)cc2)N(C)C(=O)CN(C)C(=O)CN(C)C1=O [Compound 1617] (cyclo([Ac5c][NMeV][NMedβ3hAla][NMeL]I[Sar][Sar][NMePhe(4-CF3)][Sar][hPhe(3-Cl-4-CF3)]P)) | 2.7 nM | 50 to 100 nM
CC[C@H](C)[C@@H]1NC(=O)[C@H](CC(C)C)N(C)C(=O)C[C@@H](C)NC(=O)[C@H](C(C)C)N(C)C(=O)C2(CCCC2)NC(=O)[C@@H]2CCCN2C(=O)[C@H](CCc2ccc(C(F)(F)F)c(Cl)c2)NC(=O)CN(C)C(=O)[C@H](Cc2ccc(C(F)(F)F)cc2)N(C)C(=O)CN(C)C(=O)CN(C)C1=O [Compound 1620] (cyclo([Ac5c][NMeV][d(β3hA)][NMeL]I[Sar][Sar][NMePhe(4-CF3)][Sar][hPhe(3-Cl-4-CF3)]P)) | 5.4 nM | 50 to 100 nM
CC[C@H](C)[C@@H]1NC(=O)[C@H](CC(C)C)N(C)C(=O)C[C@@H](C)N(C)C(=O)[C@H](C(C)C)N(C)C(=O)C2(CCCC2)NC(=O)[C@@H]2CCCN2C(=O)[C@H](CCc2ccc(C(F)(F)F)c(Cl)c2)NC(=O)CN(C)C(=O)[C@H](Cc2cccc(Cl)c2)N(C)C(=O)CN(C)C(=O)CN(C)C1=O [Compound 1621] (cyclo([Ac5c][NMeV][NMedβ3hAla][NMeL]I[Sar][Sar][NMePhe(3-Cl)][Sar][hPhe(3-Cl-4-CF3)]P)) | 7.2 nM | 50 to 100 nM
CC[C@H](C)[C@@H]1NC(=O)[C@H](CC(C)C)N(C)C(=O)C[C@@H](C)NC(=O)[C@H](C(C)C)N(C)C(=O)C2(CCCC2)NC(=O)[C@@H]2CCCN2C(=O)[C@H](CCc2ccc(C(F)(F)F)c(Cl)c2)NC(=O)CN(C)C(=O)[C@H](Cc2ccc(Br)cc2)N(C)C(=O)CN(C)C(=O)CN(C)C1=O [Compound 1625] (cyclo([Ac5c][NMeV][d(β3hA)][NMeL]I[Sar][Sar][NMePhe(4-Br)][Sar][hPhe(3-Cl-4-CF3)]P)) | 7.2 nM | 100 to 500 nM
CC[C@H](C)[C@@H]1NC(=O)[C@H](CC(C)C)N(C)C(=O)C[C@@H](C(=O)N2CCCCC2)N(C)C(=O)[C@H](C(C)C)N(C)C(=O)C2(CCCC2)NC(=O)[C@@H]2CCCN2C(=O)[C@H](CCc2ccc(C(F)(F)F)c(Cl)c2)NC(=O)CN(C)C(=O)[C@H](Cc2cccc(C)c2)N(C)C(=O)CN(C)C(=O)CN(C)C1=O [Compound 1626] ([NMeL]I[Sar][Sar][NMePhe(3-Me)][Sar][hPhe(3-Cl-4-CF3)]P[Ac5c][NMeV][NMeD]-Piperidide; lactam N-11) | 4.4 nM | 100 to 500 nM
CC[C@H](C)[C@@H]1NC(=O)[C@H](CC(C)C)N(C)C(=O)C[C@@H](C(=O)N2CCCCC2)N(C)C(=O)[C@H](C(C)C)N(C)C(=O)C2(CCCC2)NC(=O)[C@@H]2CCCN2C(=O)[C@H](CCc2ccc(C(F)(F)F)c(Cl)c2)NC(=O)CN(C)C(=O)[C@H](Cc2ccc(C(F)(F)F)cc2)N(C)C(=O)CN(C)C(=O)CN(C)C1=O [Compound 1629] ([NMeL]I[Sar][Sar][NMePhe(4-CF3)][Sar][hPhe(3-Cl-4-CF3)]P[Ac5c][NMeV][NMeD]-Piperidide; lactam N-11) | 2.5 nM | 50 to 100 nM
CC[C@H](C)[C@@H]1NC(=O)[C@H](CC(C)C)N(C)C(=O)C[C@@H](C(=O)N2CCCCC2)N(C)C(=O)[C@H](C(C)C)N(C)C(=O)C2(CCCC2)NC(=O)[C@@H]2CCCN2C(=O)[C@H](CCc2ccc(C(F)(F)F)c(Cl)c2)NC(=O)CN(C)C(=O)[C@H](Cc2ccc(OC(F)(F)F)cc2)N(C)C(=O)CN(C)C(=O)CN(C)C1=O [Compound 1630] ([NMeL]I[Sar][Sar][NMeY](CF3)[Sar][hPhe(3-Cl-4-CF3)]P[Ac5c][NMeV][NMeD]-Piperidide; lactam N-11) | 6.2 nM | 100 to 500 nM
CC[C@H](C)[C@@H]1NC(=O)[C@H](CC(C)C)N(C)C(=O)C[C@@H](C(=O)N2CCCCC2)N(C)C(=O)[C@H](C(C)C)N(C)C(=O)C2(CCCC2)NC(=O)[C@@H]2CCCN2C(=O)[C@H](CCc2ccc(C(F)(F)F)c(Cl)c2)NC(=O)CN(C)C(=O)[C@H](Cc2ccc(F)cc2)N(C)C(=O)CN(C)C(=O)CN(C)C1=O [Compound 1631] ([NMeL]I[Sar][Sar][NMePhe(4-F)][Sar][hPhe(3-Cl-4-CF3)]P[Ac5c][NMeV][NMeD]-Piperidide; lactam N-11) | 5 nM | 100 to 500 nM
CC[C@H](C)[C@@H]1NC(=O)[C@H](CC(C)C)N(C)C(=O)C[C@@H](C)NC(=O)[C@H](C(C)C)N(C)C(=O)C2(CCCC2)NC(=O)[C@@H]2CCCN2C(=O)[C@H](CCc2ccc(C(F)(F)F)c(Cl)c2)NC(=O)CN(C)C(=O)[C@H](Cc2ccc(C)cc2)N(C)C(=O)CN(C)C(=O)CN(C)C1=O [Compound 1632] (cyclo([Ac5c][NMeV][d(β3hA)][NMeL]I[Sar][Sar][NMePhe(4-Me)][Sar][hPhe(3-Cl-4-CF3)]P)) | 2.9 nM | 100 to 500 nM
CC[C@H](C)[C@@H]1NC(=O)[C@H](CC(C)C)N(C)C(=O)C[C@@H](C)N(C)C(=O)[C@H](C(C)C)N(C)C(=O)C2(CCCC2)NC(=O)[C@@H]2CCCN2C(=O)[C@H](CCc2ccc(C(F)(F)F)c(Cl)c2)NC(=O)CN(C)C(=O)[C@H](Cc2ccccc2OC(F)(F)F)N(C)C(=O)CN(C)C(=O)CN(C)C1=O [Compound 1633] (cyclo([Ac5c][NMeV][NMedβ3hAla][NMeL]I[Sar][Sar][X23][Sar][hPhe(3-Cl-4-CF3)]P)) | 50 nM | 100 to 500 nM
CC[C@H](C)[C@@H]1NC(=O)[C@H](CC(C)C)N(C)C(=O)C[C@@H](C)N(C)C(=O)[C@H](C(C)C)N(C)C(=O)C2(CCCC2)NC(=O)[C@@H]2CCCN2C(=O)[C@H](CCc2ccc(C(F)(F)F)c(Cl)c2)NC(=O)CN(C)C(=O)[C@H](CCc2ccccc2)N(C)C(=O)CN(C)C(=O)CN(C)C1=O [Compound 1634] (cyclo([Ac5c][NMeV][NMedβ3hAla][NMeL]I[Sar][Sar][NMehPhe][Sar][hPhe(3-Cl-4-CF3)]P)) | 13 nM | 50 to 100 nM
CC[C@H](C)[C@@H]1NC(=O)[C@H](CC(C)C)N(C)C(=O)C[C@@H](C(=O)N2CCCCC2)N(C)C(=O)[C@H](C(C)C)N(C)C(=O)C2(CCCC2)NC(=O)[C@@H]2CCCN2C(=O)[C@H](CCc2ccc(C(F)(F)F)c(Cl)c2)NC(=O)CN(C)C(=O)[C@H](Cc2ccccc2Cl)N(C)C(=O)CN(C)C(=O)CN(C)C1=O [Compound 1636] ([NMeL]I[Sar][Sar][NMePhe(2-Cl)][Sar][hPhe(3-Cl-4-CF3)]P[Ac5c][NMeV][NMeD]-Piperidide; lactam N-11) | 11 nM | 100 to 500 nM
